In patent publication US5468767A, “Antidepressant 3-(aminocycloalkenyl)-indole-5-nitrile derivatives” (Bristol-Myers Squibb Company, priority 1994, dated 1995):

The molecules below were run on synaptosomal re-uptake of tritiated serotonin (assay: In vitro inhibition of synaptosomal re-uptake of tritiated serotonin (5-HT uptake inhibition)).
Type: biochemical
Protocol: Determination of endogenous monoaminergic re-uptake inhibition values both for serotonin and norepinephrine was accomplished using test methods described by P. Skolnick, et al., Br. J. Pharmacology, (1985), 86, pp. 637-644; with only minor modifications. In vitro IC50 (nM) test values were determined for representative compounds of Formula I based on their inhibition of synaptosomal re-uptake of tritiated serotonin. Test data IC50 values lower than 500 nM are considered to reflect activity as an inhibitor of serotonin re-uptake.
In vitro IC50 (nM) test values below 100 nM are designated with ** and those below 10 nM with ***.
`CN(C)C1CC=C(c2c[nH]c3ccc(C#N)cc23)CC1` (stereo not drawn) [Example 23] was tested, and the IC50 was < 10 nM.
In the case of `CCN(CC)C1CC=C(c2c[nH]c3ccc(C#N)cc23)CC1` (stereo not drawn) [Example 24], the IC50 is reported as < 100 nM.
In the case of `CC(C)NC1CC=C(c2c[nH]c3ccc(C#N)cc23)CC1` (stereo not drawn) [Example 26], the IC50 is reported as < 100 nM.
`N#Cc1ccc2[nH]cc(C3=CCC(NCc4ccccc4)CC3)c2c1` (stereo not drawn) [Example 27] was tested, and the IC50 was < 10 nM.
For `N#Cc1ccc2[nH]cc(C3=CCC(NCCc4ccccc4)CC3)c2c1` (stereo not drawn) [Example 28], the IC50 was < 10 nM.
With `CN(CCc1ccccc1)C1CC=C(c2c[nH]c3ccc(C#N)cc23)CC1` (stereo not drawn) [Example 29] the IC50 was < 10 nM.
`N#Cc1ccc2[nH]cc(C3=CCC(NCCc4cccc(F)c4)CC3)c2c1` (stereo not drawn) [Example 30] was tested, and the IC50 was < 10 nM.
`N#CCc1ccc2[nH]cc(C3=CCC(NCCc4ccccc4)CC3)c2c1` (stereo not drawn) [Example 31, 3-[[4-(2-Phenylethyl)amino]-1-cyclohexen-1-yl]-1H-indole-5-acetonitrile] was tested, and the IC50 was < 100 nM.
In the case of `N#Cc1ccc2[nH]cc(C3=CCC(NCCc4ccccc4F)CC3)c2c1` (stereo not drawn) [Example 32], the IC50 is reported as < 10 nM.
For `N#Cc1ccc2[nH]cc(C3=CCC(NCCc4ccc(F)cc4)CC3)c2c1` (stereo not drawn) [Example 33], the IC50 was < 10 nM.
In the case of `COc1ccccc1CCNC1CC=C(c2c[nH]c3ccc(C#N)cc23)CC1` (stereo not drawn) [Example 34], the IC50 is reported as < 10 nM.
With `COc1cccc(CCNC2CC=C(c3c[nH]c4ccc(C#N)cc34)CC2)c1` (stereo not drawn) [Example 35] the IC50 was < 10 nM.
In the case of `COc1ccc(CCNC2CC=C(c3c[nH]c4ccc(C#N)cc34)CC2)cc1` (stereo not drawn) [Example 36], the IC50 is reported as < 10 nM.
With `N#Cc1ccc2[nH]cc(C3=CCC(NCCc4cccnc4)CC3)c2c1` (stereo not drawn) [Example 37] the IC50 was < 10 nM.
For `N#Cc1ccc2[nH]cc(C3=CCC(NCCCc4ccccc4)CC3)c2c1` (stereo not drawn) [Example 38], the IC50 was < 10 nM.
With `N#Cc1ccc2[nH]cc(C3=CCC(NCC4COc5ccccc5O4)CC3)c2c1` (stereo not drawn) [Example 39] the IC50 was < 10 nM.
For `N#Cc1ccc2[nH]cc(C3=CCC(NCCCCc4ccccc4)CC3)c2c1` (stereo not drawn) [Example 40], the IC50 was < 10 nM.
With `CCNC1CC=C(c2c[nH]c3ccc(C#N)cc23)CC1` (stereo not drawn) [Example 41] the IC50 was < 100 nM.
